Values of other authors as cited in patent US4239780A, “Phospholipase A2 inhibition” (The Upjohn Company, priority 1979, dated 1980).

Tests used:
phospholipase A2 = phospholipase A2 (Naja naja, UniProt P15445); settings: cited from earlier work
[1] = target: phospholipase A2 from venom of bee (Apis mellifera, UniProt P00630); settings: enzyme from bee venom; cited from earlier work
[2] = target: phospholipase A2 from venom of Crotalus Adamanteus (Crotalus adamanteus, UniProt P00623); settings: enzyme from Crotalus Adamanteus venom; cited from earlier work
Sequence of phospholipase A2 from venom of Crotalus Adamanteus (P00623 17-138 limits assumed): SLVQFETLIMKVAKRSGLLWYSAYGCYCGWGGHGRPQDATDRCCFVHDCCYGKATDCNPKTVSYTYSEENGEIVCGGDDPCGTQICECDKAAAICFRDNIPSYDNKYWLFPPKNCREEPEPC

[3] = target: T1, phospholipase A2 from pig pancreas (Sus scrofa, UniProt P00592); settings: enzyme from pig pancreas; cited from earlier work
T1 construct: host or cells: pig pancreas
T1 sequence (P00592 23-146): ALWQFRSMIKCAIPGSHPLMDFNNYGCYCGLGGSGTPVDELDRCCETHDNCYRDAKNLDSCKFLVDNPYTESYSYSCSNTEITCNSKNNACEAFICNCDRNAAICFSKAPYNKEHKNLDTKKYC

[4] = system: phospholipase A2 of rabbit polymorphonuclear leukocytes; settings: cited from earlier work
[5] = system: phospholipase A2 derived from perfused guinea pig lung; settings: enzyme derived from perfused guinea pig lung; cited from earlier work

Sequence of phospholipase A2 from venom of bee (P00630 34-167 limits assumed): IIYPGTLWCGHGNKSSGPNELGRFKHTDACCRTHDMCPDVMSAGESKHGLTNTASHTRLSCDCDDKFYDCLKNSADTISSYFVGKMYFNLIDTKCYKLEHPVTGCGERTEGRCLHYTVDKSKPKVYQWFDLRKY
Sequence of phospholipase A2 (P15445 whole entry, looked up): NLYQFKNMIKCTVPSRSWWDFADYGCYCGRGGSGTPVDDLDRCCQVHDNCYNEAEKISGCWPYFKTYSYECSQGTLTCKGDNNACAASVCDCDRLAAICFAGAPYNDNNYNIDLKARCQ

## O=C(CBr)c1ccc(Br)cc1 [Bromphenacyl bromide]
Phospholipase A2
  inhibition of phospholipase A2: inhibit phospholipase A2 by acylating a histadine residue

## COc1ccc2c(c1)c(CC(=O)O)c(C)n2C(=O)c1ccc(Cl)cc1 [indomethacin, Indomethacin]
[1]
  inhibition of phospholipase A2: inactive
[2]
  inhibition of phospholipase A2: inactive
[3]
  inhibition of phospholipase A2: inactive
[4]
  inhibition of phospholipase A2: inhibit phospholipase A2 of rabbit polymorphonuclear leukocytes in dose dependent fashion

## CCN(CC)CCCC(C)Nc1c2ccc(Cl)cc2nc2ccc(OC)cc12 (stereo not drawn) [mepacrine]
[5]
  inhibition of phospholipase A2: inhibits the activity of phospholipase A2
